# Laboratory results published in ChEMBL document CHEMBL3351698, “Melleolides induce rapid cell death in human primary monocytes and cancer cells” (Bioorg Med Chem, 2014).
# Activity calls are given as the source filed them. No cut-off for these calls is given here. Starred links: 1 amine or outer side, 2 acyl side, 3 side chain; linkers in the order of their positions; H or OH if unused. Positions of bridges follow the written chain, without caps; N, C: chain ends. Non-standard residues stand in square brackets, D forms with d. Residues, ends and D or L forms follow the SMILES beside them. Chains are numbered I, II in the order given. Actinocin(9to1) = Cc1c2oc3c(C)ccc(C(=O)[*:1])c3nc-2c(C(=O)[*:2])c(N)c1=O; NMeV = CN[C@H](C(=O)O)C(C)C; Sar = CNCC(=O)O
# Tests used:
# MONO-MAC-6 = test: Cytotoxicity against human MONO-MAC-6 cells after 24 hrs by MTT assay; format: functional, cell-based; conditions: MONO-MAC-6, 24 h
# Monocyte [1] = test: Cytotoxicity against human primary monocytes up to 1 uM after 24 hrs by MTT assay; format: functional
# THP-1 = test: Cytotoxicity against human THP1 cells after 24 hrs by MTT assay; format: functional, cell-based; conditions: THP-1, 24 h
# [2] = Cytotoxicity against human primary monocytes after 24 hrs by MTT assay; format: functional; conditions: Monocyte
# K562 = test: Cytotoxicity against human K562 cells after 24 hrs by MTT assay; format: functional, cell-based; conditions: K562, 24 h
# HeLa [3] = test: Cytotoxicity against human HeLa cells after 24 hrs by MTT assay; format: functional, cell-based
# Monocyte [4] = test: Induction of cell death in human primary monocytes at 3 uM after 4 hrs by LDH release assay; format: functional, cell-based
# Monocyte [5] = test: Cytotoxicity against human primary monocytes at 0.001 to 1 uM after 24 hrs by MTT assay; format: functional
# HeLa [6] = test: Cytotoxicity against human HeLa cells at 0.001 to 1 uM after 24 hrs by MTT assay; format: functional, cell-based
# Monocyte [7] = test: Cytotoxicity against human primary monocytes assessed as reduction in cell viability at 3 uM after 2 hrs by inverse MTT assay; format: functional
# HeLa [8] = test: Cytotoxicity against human HeLa cells assessed as reduction in cell viability at 3 uM after 2 hrs by inverse MTT assay; format: functional, cell-based
# Monocyte [9] = test: Cytotoxicity against human primary monocytes assessed as reduction in cell viability at 3 uM after 18 hrs by inverse MTT assay; format: functional
# HeLa [10] = test: Cytotoxicity against human HeLa cells assessed as reduction in cell viability at 3 uM after 18 hrs by inverse MTT assay; format: functional, cell-based
# Monocyte [11] = test: Induction of apoptosis in human primary monocytes assessed as nuclear fragmentation at 3 uM after 3 hrs by light microscopy; format: functional, cell-based
# Monocyte [12] = test: Induction of apoptosis in human primary monocytes assessed as apoptotic bodies formation at 3 uM after 3 hrs by light microscopy; format: functional, cell-based
# Monocyte [13] = test: Induction of apoptosis in human primary monocytes at 3 uM by PE Annexin V and 7-aminoactinomycin staining based flow cytometry; format: functional, cell-based
# Monocyte [14] = test: Induction of necrosis in human primary monocytes at 3 uM by PE Annexin V and 7-aminoactinomycin staining based flow cytometry; format: functional, cell-based
# Monocyte [15] = test: Cytotoxicity against human primary monocytes assessed as reduction in cell viability at 25 uM after 2 to 5 hrs by inverse MTT assay; format: functional
# HeLa [16] = test: Cytotoxicity against human HeLa cells assessed as reduction in cell viability at 25 uM after 2 to 5 hrs by inverse MTT assay; format: functional, cell-based
# Monocyte [17] = test: Cytotoxicity against human primary monocytes assessed as reduction in cell viability at 25 uM after 18 hrs by inverse MTT assay; format: functional
# HeLa [18] = test: Cytotoxicity against human HeLa cells assessed as reduction in cell viability at 25 uM after 18 hrs by inverse MTT assay; format: functional, cell-based
# [19] = Reduction in metabolic activity in mitochondria isolated from human MONO-MAC-6 cells after 3 hrs at 10 uM by MTT assay; format: functional
# Monocyte [20] = test: Cytotoxicity against human primary monocytes assessed as reduction in cell viability at 1 uM after 2 to 5 hrs by inverse MTT assay; format: functional
# HeLa [21] = test: Cytotoxicity against human HeLa cells assessed as reduction in cell viability at 1 uM after 2 to 5 hrs by inverse MTT assay; format: functional, cell-based
# Monocyte [22] = test: Cytotoxicity against human primary monocytes assessed as reduction in cell viability at 1 uM after 18 hrs by inverse MTT assay; format: functional
# HeLa [23] = test: Cytotoxicity against human HeLa cells assessed as reduction in cell viability at 1 uM after 18 hrs by inverse MTT assay; format: functional, cell-based
# Monocyte [24] = test: Induction of cell death in human primary monocytes at 0.1 to 10 uM after 4 hrs by LDH release assay; format: functional, cell-based
# [25] = Cytotoxicity against human primary monocytes assessed as reduction in cell viability at 5 uM after 2 hrs by inverse MTT assay; format: functional, Monocyte
# HeLa [26] = test: Cytotoxicity against human HeLa cells assessed as reduction in cell viability at 5 uM after 2 hrs by inverse MTT assay; format: functional
# Monocyte [27] = test: Induction of necrosis in human primary monocytes at 5 uM after 1 to 3 hrs by light microscopy; format: functional, cell-based
# Monocyte [28] = test: Induction of morphological changes in human primary monocytes assessed as blebs formation at 5 uM after 15 mins by light microscopy; format: functional, cell-based
# Monocyte [29] = test: Induction of morphological changes in human primary monocytes assessed as blebs formation at 5 uM after 1 hr by light microscopy; format: functional, cell-based
# Monocyte [30] = test: Induction of morphological changes in human primary monocytes assessed as plasma membrane rupture at 5 uM after 1 hr by light microscopy; format: functional, cell-based
# Monocyte [31] = test: Induction of necrosis in human primary monocytes at 5 uM by PE Annexin V and 7-aminoactinomycin staining based flow cytometry; format: functional, cell-based
# Monocyte [32] = test: Induction of apoptosis in human primary monocytes at 5 uM by PE Annexin V and 7-aminoactinomycin staining based flow cytometry; format: functional, cell-based
# [33] = Reduction in metabolic activity in mitochondria isolated from human MONO-MAC-6 cells after 3 hrs up to 10 uM by MTT assay; format: functional; set-up: scale not given: the % may be the effect or the level left
structure (smiles),measurement,setting,value
CC[C@H](C)[C@H](NC(=O)[C@H]1CCCCN1C)C(=O)N(C)[C@H](CCc1nc(C(=O)N[C@@H](Cc2ccccc2)C[C@H](C)C(=O)O)cs1)C(C)C,EC50,MONO-MAC-6,0.03 µM
same,Activity,Monocyte [1],inactive
COc1cc(C)c(C(=O)O[C@@H]2C[C@@]3(C)C2=C(C=O)[C@@H](O)[C@@H]2CC(C)(C)C[C@@H]23)c(O)c1,EC50,THP-1,2.4 µM
same,EC50,MONO-MAC-6,2.9 µM
same,EC50,[2],3.1 µM
same,EC50,K562,4.1 µM
same,EC50,HeLa [3],12.3 µM
CN[C@@H]1C[C@H]2O[C@@](C)([C@@H]1OC)n1c3ccccc3c3c4c(c5c6ccccc6n2c5c31)C(=O)NC4,Activity,Monocyte [4],Active
same,Activity,Monocyte [5],inactive
same,Activity,HeLa [6],Active
same,Activity,Monocyte [7],inactive
same,Activity,HeLa [8],inactive
same,Activity,Monocyte [9],Active
same,Activity,HeLa [10],Active
same,Activity,Monocyte [11],Active
same,Activity,Monocyte [12],Active
same,Activity,Monocyte [13],Active
same,Activity,Monocyte [14],inactive
C[C@@H]1C[C@@H]([C@H](O)CC2CC(=O)NC(=O)C2)C(=O)[C@@H](C)C1,Activity,Monocyte [15],inactive
same,Activity,HeLa [16],inactive
same,Activity,Monocyte [17],Active
same,Activity,HeLa [18],Active
N#CC(C#N)=NNc1cccc(Cl)c1,Activity,[19],Active
"Cc1c2oc3c(C)ccc(C(=O)N[C@@H]4C(=O)N[C@H](C(C)C)C(=O)N5CCC[C@H]5C(=O)N(C)CC(=O)N(C)[C@@H](C(C)C)C(=O)O[C@@H]4C)c3nc-2c(C(=O)N[C@@H]2C(=O)N[C@H](C(C)C)C(=O)N3CCC[C@H]3C(=O)N(C)CC(=O)N(C)[C@@H](C(C)C)C(=O)O[C@@H]2C)c(N)c1=O (I: T[dV]P[Sar][NMeV] / II: T[dV]P[Sar][NMeV]; ester I:1-I:C, II:1-II:C; linker I:N-II:N via Actinocin(9to1))",Activity,Monocyte [20],inactive
same,Activity,HeLa [21],inactive
same,Activity,Monocyte [22],Active
same,Activity,HeLa [23],Active
COc1cc(O)c(C(=O)O[C@@H]2C[C@]3(C)[C@H]4CC(C)(C)C[C@H]4C=C(C=O)[C@]23O)c(C)c1Cl [ARMILLARIDIN],EC50,THP-1,4.5 µM
same,EC50,MONO-MAC-6,5.6 µM
same,EC50,[2],12.3 µM
same,EC50,K562,8.9 µM
same,EC50,HeLa [3],9.2 µM
COc1cc(C)c(C(=O)O[C@@H]2C[C@]3(C)[C@H]4CC(C)(C)C[C@H]4C=C(C=O)[C@]23O)c(O)c1 [ARMILLARIN],EC50,THP-1,4.8 µM
same,EC50,MONO-MAC-6,6.6 µM
same,EC50,[2],43.2 µM
same,EC50,K562,23.7 µM
same,EC50,HeLa [3],16.7 µM
COc1cc(O)c(C(=O)O[C@@H]2C[C@@]3(C)C2=C(C=O)[C@@H](O)[C@@H]2CC(C)(C)C[C@@H]23)c(C)c1Cl [ARNAMIAL],EC50,THP-1,2.9 µM
same,EC50,MONO-MAC-6,3.2 µM
same,EC50,[2],3.8 µM
same,EC50,K562,2.3 µM
same,EC50,HeLa [3],4.9 µM
Cc1cc(O)cc(O)c1C(=O)O[C@@H]1C[C@@]2(C)C1=C(C=O)[C@@H](O)[C@@H]1CC(C)(C)C[C@@H]12 [DEHYDROARMILLYLORSELLINATE],EC50,THP-1,3 µM
same,EC50,MONO-MAC-6,4.2 µM
same,EC50,[2],2.3 µM
same,EC50,K562,5 µM
same,EC50,HeLa [3],1.6 µM
same,Activity,Monocyte [24],Active
same,Activity,[25],40%
same,Activity,HeLa [26],40%
same,Activity,Monocyte [27],Active
same,Activity,Monocyte [28],Active
same,Activity,Monocyte [29],Active
same,Activity,Monocyte [30],Active
same,Activity,Monocyte [31],Active
same,Activity,Monocyte [32],inactive
same,Activity,[33],50%
COc1cc(O)c(C(=O)O[C@@H]2C[C@]3(C)[C@H]4[C@@H](O)C(C)(C)C[C@@]4(O)C=C(CO)[C@]23O)c(C)c1Cl [MELLEOLIDE D],EC50,THP-1,> 100 µM
same,EC50,MONO-MAC-6,48.6 µM
same,EC50,[2],60.7 µM
same,EC50,K562,> 100 µM
same,EC50,HeLa [3],> 100 µM
same,Activity,Monocyte [24],inactive
